# Data published in EP2061765B1, “Serine-threonine protein kinase and PARP modulators” (Senhwa Biosciences, Inc., priority 2006, dated 2008).
# How the values were obtained:
# Assay in all cases: Cell proliferation assay (Alamar Blue)
# Format in all cases: cell-based
# [1] = test system: Jurkat; conditions: Homo sapiens, 96 h, Jurkat cells, four days
# Experimental: (§1) A representative cell-proliferation assay protocol using Alamar Blue dye (stored at 4°C, use 20ul per well) is described hereafter. 96-well plate setup and compound treatment • a. Split and trypsinize cells. • b. Count cells using hemocytometer. • c. Plate 4,000-5,000 cells per well in 100 µl of medium and seed into a 96-well plate according to the following plate layout. Add cell culture medium only to wells B10 to B12. Wells B1 to B9 have cells but no compound added. [formula] [formula] • d. Add 100 µl of 2X drug dilution to each well in a concentration shown in the plate layout above. At the same time, add 100 µl of media into the control wells (wells B10 to B12). Total volume is 200 µl/well. • e. Incubate four (4) days at 37°C, 5% CO2 in a humidified incubator. • f. Add 20µl Alamar Blue reagent to each well. • g. Incubate for four (4) hours at 37°C, 5% CO2 in a humidified incubator. • h. Record fluorescence at an excitation wavelength of 544nm and emission wavelength of 590nm using a microplate reader.
# (§2) In the assays, cells are cultured with a test compound for approximately four days, the dye then is added to the cells and fluorescence of […] dye is detected after approximately four hours. Different types of cells can be utilized in the assays (e.g., HCT-116 human colorectal carcinoma cells, PC-3 human prostatic cancer cells and MiaPaca human pancreatic carcinoma cells). Anti-proliferative effects of representative compounds are provided hereafter.
# [2] = test system: MiaPaCa; conditions: Homo sapiens, MIA PaCa-2, 96 h, MiaPaCa cells, four days
# Experimental: as §1, §2
# [3] = test system: HCT-116; conditions: Homo sapiens, 96 h, HCT-116 cells, four days;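 also: fluorescence of unreduced Alamar Blue read roughly 4 h after dye addition, with wells given medium instead of compound serving as controls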
Compound,IC50 [1],IC50 [2],IC50 [3]
O=C(O)c1ccc2c(c1)nc(Nc1cccc(C(F)(F)F)c1)c1nc(NC3CC3)ncc12 [drawing 341],3.13 µM,0.65 µM,
CCNc1ncc2c(n1)c(Nc1cccc(Cl)c1)nc1cc(C(=O)O)ccc12 [drawing 342],3.06 µM,0.92 µM,
C#Cc1cccc(Nc2nc3cc(C(=O)O)ccc3c3cnc(NCCC)nc23)c1 [drawing 328],2.67 µM,2.32 µM,> 10 µM
COCCNc1ncc2c(n1)c(Nc1ccc(F)c(Cl)c1)nc1cc(C(=O)O)ccc12 [drawing 346],0.41 µM,1.08 µM,> 10 µM
C#Cc1cccc(Nc2nc3cc(C(=O)O)ccc3c3cnc(NCCCN4CCOCC4)nc23)c1 [drawing 331],3.69 µM,2.26 µM,> 10 µM
C#Cc1cccc(Nc2nc3cc(C(=O)O)ccc3c3cnc(NC4CCNCC4)nc23)c1 [drawing 330],9.55 µM,8.62 µM,> 10 µM
CCOC(=O)CCNC(=O)c1ccc2c(c1)nc(Nc1cccc(C(F)(F)F)c1)c1nc(NC3CC3)ncc12 [drawing 371],3.75 µM,0.33 µM,> 10 µM
O=C(O)c1ccc2c(c1)nc(Nc1cccc(C(F)(F)F)c1)c1ncncc12 [drawing 335],2.53 µM,2.23 µM,> 10 µM
COC(CNc1ncc2c(n1)c(Nc1ccc(F)c(Cl)c1)nc1cc(C(=O)O)ccc12)OC [drawing 363],1.12 µM,3.41 µM,> 10 µM
CN(C)CCNc1ncc2c(n1)c(Nc1ccc(F)c(Cl)c1)nc1cc(C(=O)O)ccc12 [drawing 361],1.25 µM,2.14 µM,> 10 µM
O=C(O)CCNc1ncc2c(n1)c(Nc1cccc(Cl)c1)nc1cc(C(=O)O)ccc12 [drawing 355],> 50 µM,> 50 µM,> 10 µM
CCOc1ncc2c(n1)c(Nc1cccc(C(F)(F)F)c1)nc1cc(C(=O)O)ccc12 [drawing 336],35.9 µM,18.1 µM,> 10 µM
O=C(O)c1ccc2c(c1)nc(Nc1cc(F)cc(F)c1)c1nc(NC3CC3)ncc12 [drawing 358],6.02 µM,2.32 µM,> 10 µM
O=C(O)c1ccc2c(c1)nc(Nc1ccc(F)c(Cl)c1)c1nc(NCc3ccncc3)ncc12 [drawing 368],5.11 µM,4.5 µM,> 10 µM
COCCNc1ncc2c(n1)c(Nc1ccccc1)nc1cc(C(=O)O)ccc12 [drawing 320],5.8 µM,3.2 µM,> 10 µM
CNc1ncc2c(n1)c(Nc1ccc(F)c(Cl)c1)nc1cc(C(=O)O)ccc12 [drawing 343],1.24 µM,0.65 µM,> 10 µM
CNC(=O)c1ccc2c(c1)nc(Nc1cccc(C(F)(F)F)c1)c1nc(NC3CC3)ncc12 [drawing 366],3.65 µM,11.9 µM,> 10 µM
NC(=O)CCNc1ncc2c(n1)c(Nc1cccc(Cl)c1)nc1cc(C(=O)O)ccc12 [drawing 354],37.7 µM,> 50 µM,> 10 µM
O=C(O)c1ccc2c(c1)nc(Nc1cccc(F)c1)c1nc(NC3CC3)ncc12 [drawing 359],3.56 µM,3.27 µM,> 10 µM
O=C(O)c1ccc2c(c1)nc(Nc1cccc(Cl)c1)c1nc(O)ncc12 [drawing 350],> 50 µM,> 50 µM,> 10 µM
C#Cc1cccc(Nc2nc3cc(C(=O)O)ccc3c3cnc(NCCCOCC)nc23)c1 [drawing 348],0.39 µM,0.87 µM,> 10 µM
c1ccc(Nc2nc3cc(-c4nnn[nH]4)ccc3c3cnccc23)cc1,,,> 10 µM
CC(C)OC(=O)Nc1ccc2c(c1)nc(Nc1cccc(C(F)(F)F)c1)c1nc(NC3CC3)ncc12 [drawing 370],1.16 µM,,> 10 µM

# Other lines, results leading:
IC50 [1],IC50 [2],IC50 [3],Compound
,> 10 µM,> 10 µM,COC(=O)c1ccc2c(c1)nc(Nc1cccc(Cl)c1)c1ccncc12
3.44 µM,2.85 µM,> 10 µM,COc1cccc(Nc2nc3cc(C(=O)O)ccc3c3cnc(NC4CC4)nc23)c1 [drawing 360]
2.37 µM,2.01 µM,> 10 µM,C#Cc1cccc(Nc2nc3cc(C(=O)O)ccc3c3cnc(NCCCOC(C)C)nc23)c1 [drawing 349]
1.16 µM,3.97 µM,> 10 µM,NC(=O)c1ccc2c(c1)nc(Nc1cccc(C(F)(F)F)c1)c1nc(NC3CC3)ncc12 [drawing 364]
7.9 µM,11.9 µM,> 10 µM,O=C(O)c1ccc2c(c1)nc(Nc1ccccc1)c1nc(NCCCO)ncc12 [drawing 322]
,2.82 µM,0.97 µM,COC(=O)c1ccc2c(c1)nc(Nc1ccccc1)c1nc(S(C)(=O)=O)ncc12
26.1 µM,16.2 µM,> 10 µM,O=C(O)c1ccc2c(c1)nc(Nc1ccccc1)c1nc(NCCO)ncc12 [drawing 321]
0.94 µM,1 µM,8.05 µM,C#Cc1cccc(Nc2nc3cc(C(=O)O)ccc3c3cnc(NCCOC)nc23)c1 [drawing 329]
,4.05 µM,4.28 µM,OCc1ccc2c(c1)nc(Nc1cccc(Cl)c1)c1ccncc12
3.45 µM,8.33 µM,> 10 µM,Cc1cccc(Nc2nc3cc(C(=O)O)ccc3c3cnccc23)c1 [drawing 356]
,,> 10 µM,Cc1noc(-c2ccc3c(c2)nc(Nc2ccccc2)c2ccncc23)n1
3.92 µM,,> 10 µM,O=C(NC1CC1)c1ccc2c(c1)nc(Nc1cccc(C(F)(F)F)c1)c1nc(NC3CC3)ncc12 [drawing 365]
8.98 µM,5.12 µM,> 10 µM,O=C(O)c1ccc2c(c1)nc(Nc1ccccc1)c1nc(Nc3ccccc3)ncc12 [drawing 369]
2.18 µM,1.36 µM,> 10 µM,O=C(O)c1ccc2c(c1)nc(Nc1ccccc1)c1nc(NCCCN3CCOCC3)ncc12 [drawing 326]
13.1 µM,1.45 µM,> 10 µM,CCN(CC)CCNc1ncc2c(n1)c(Nc1ccccc1)nc1cc(C(=O)O)ccc12 [drawing 324]
,> 10 µM,9.56 µM,COC(=O)c1ccc2c(c1)nc(Nc1ccccc1)c1nc(SC)ncc12
2.42 µM,0.68 µM,1.94 µM,O=C(O)c1ccc2c(c1)nc(Nc1ccccc1)c1nc(NC3CC3)ncc12 [drawing 318]
,,6.9 µM,N#Cc1ccc2c(c1)nc(Nc1ccccc1)c1ccncc12
,2.92 µM,1.71 µM,COC(=O)c1ccc2c(c1)nc(Cl)c1ncncc12
,> 10 µM,4.06 µM,CNc1ncc2c(n1)c(Nc1ccccc1)nc1cc(C(=O)OC)ccc12
3.05 µM,9.09 µM,3.99 µM,O=C(O)c1ccc2c(c1)nc(Nc1ccc(Cl)c(C(F)(F)F)c1)c1ccncc12 [drawing 333]
1.27 µM,1.2 µM,7.3 µM,C#Cc1cccc(Nc2nc3cc(C(=O)O)ccc3c3cnc(NC4CC4)nc23)c1 [drawing 327]
4.34 µM,0.95 µM,11.2 µM,Nc1ncc2c(n1)c(Nc1ccc(F)c(Cl)c1)nc1cc(C(=O)O)ccc12 [drawing 344]
